These results are taken from article PMC8820799, “Angiogenesis and anti-leukaemia activity of novel indole derivatives as potent colchicine binding site inhibitors” (Journal of Enzyme Inhibition and Medicinal Chemistry, 2022).

Molecules are shown by their SMILES. Values after ≈ are worked out from the molar mass of the structure shown. Read-outs that look alike come from different tables or passages of the source. Some results are limits rather than exact numbers.

Broadly, the IC50 is the point on the concentration scale where inhibition reaches its midpoint. What is called solubility is how much of the substance goes into solution per volume. For orientation: microsomal CLint means the capacity of the preparation to metabolise the compound, expressed as a volume cleared per time. One may read the half-life as the time needed for the level to fall by half in the phase considered.

Series [1] relates to transgenic zebrafish (FLK-1:EGFP). Kind of series: Zebrafish angiogenesis assay (ISVs). In kind it is in vivo. The settings on record: for IC50: transgenic zebrafish, triplicate, mean ± SD, read-out: Zebrafish (antiangiogenic activity IC50). On the procedure:
The transgenic flk: enhanced GFP zebrafish embryos were generated by pair-wise mating, collected and sorted into the 6-well plate (n = 30 per well) with 1 ml of aquaculture water (0.2 g/L of Instant Ocean Salt in distilled water) and raised at 28 °C. Then the embryos staged at 12 h post fertilisation (hpf) were treated with the indicated concentrations of compounds which were added into embryo water. About 30 embryos were screened for each concentration gradient. At 30hpf, the treated embryos were anaesthetised with 0.02% tricaine in embryo water and photographed. The numbers of ISVs were recorded under confocal microscopy. Results were obtained from three independent determinations and presented as mean ± SD.[38]

Series [2] concerns K562. Kind of series: CCK-8 assay, K562. In kind it is cell-based. The settings on record: Homo sapiens, leukaemia, CML, CCK-8, 72 h. Here is the method: (§1) Cells were seeded in 96-well plates at a density of 8 × 10^3 per well and exposed to different concentrations of compounds for 72 h. Subsequently, 10 µL CCK8 solution was added to each well and co-incubated for another 3–4 h at 37 °C. The absorbance was determined at 450 nm. Data was calculated with GraphPad Prism5 software.[32]
Background: Tetrazolium assays rely on reduction of a dye to a coloured formazan, in cell work by metabolically active cells.

The subject of series [3] is THP-1. As to the kind of experiment: CCK-8 assay, THP-1. Type of series: cell-based. Conditions: Homo sapiens, leukaemia, AML, CCK-8, 72 h. Here is the method: as §1
Series [4] deals with CCRF-CEM. Kind of series: CCK-8 assay, CCRF-CEM. Conditions: Homo sapiens, leukaemia, ALL, CCK-8, 72 h. Type of series: cell-based. On the procedure: as §1
Series [5] concerns Jurkat. As to the kind of experiment: CCK-8 assay, Jurkat. In kind it is cell-based. The settings on record: Homo sapiens, leukaemia, ALL, CCK-8, 72 h. Here is the method:
as §1

For series [6], the system named is HuT 78. Kind of series: CCK-8 assay, HuT 78. Type of series: cell-based. Conditions: Homo sapiens, HuT78; leukaemia, ALL; CCK-8, 72 h. Here is the method:
as §1

Series [7] relates to leukaemia cell lines. As to the kind of experiment: Anti-proliferation against a variety of leukaemia cell lines (CCK-8). In kind it is cell-based. The settings on record: seven leukaemia cell lines; read-out: IC50 against a variety of leukaemia cell lines (range over panel). Here is the method: as §1
In series [8] the test system is K562 cells. As to the kind of experiment: Cell apoptosis assay by flow cytometry (Annexin V-PE/PI). In kind it is cell-based. The settings on record: K562, 48 h; after treatment of 29e (control 5.95%); equals Q2+Q3 at 200 nM. Here is the method:
K562 cells at 8х10^4 cells/well were seeded in 12-well cell culture plates overnight and the cultured cells were incubated with a dose range of compounds 29e for 48 h. The treated or untreated cells were washed twice with PBS and stained by Annexin V-PE and PI for 15 min without light exposure according to the manufacturer’s protocol. Apoptosis was quantified using a flow cytometer ((Becton, Dickinson and Company, USA).[32]
Background: In flow cytometry, cells or beads pass a laser one at a time.

Series [9] relates to HUVEC. Kind of series: Toxicity on HUVEC. In kind it is cell-based, human.
Series [10] is described as follows: Kinetic solubility by nephelometry. Type of series: physicochemical. The settings on record: kinetic from dmso stock, 1% DMSO. Here is the method: Calculated physicochemical parameters. Physicochemical properties were calculated using the ChemAxon chemistry cartridge via JChem for Excel software (version 16.4.11). Compound 29e in DMSO was spiked into either pH 6.5 phosphate buffer or 0.01 M HCl (approximately pH 2.0) with the final DMSO concentration being 1%. After 30 min had elapsed, samples were analysed via Nephelometry to determine a solubility range.

Series [11] can be described thus: In vitro metabolic stability, human liver microsomes. Type of series: in vitro ADME. Conditions: 0.4 mg/mL protein. Here is the method:
(§2) The metabolic stability assay was performed by incubating the test compound in mouse or human liver microsomes (XenoTech, lot no. 1510256) at 37 °C and a protein concentration of 0.4 mg/mL. Microsomal incubations were performed at a substrate concentration of 0.5 µM. Data analysis. Species scaling factors were used to convert the in vitro CLint(mL/min/mg) to an in vivo CLint(mL/min/kg).
Background: Liver microsomes are a subcellular fraction often used to study metabolism.

A short description of series [12]: In vitro metabolic stability, mouse liver microsomes. In kind it is in vitro ADME. The settings on record: 0.4 mg/mL protein. On the procedure: as §2
For series [13], the target named is T1, tubulin colchicine binding site (Sus scrofa, UniProt P02550+P02554).
T1 construct: purchased Cytoskeleton, Inc
Kind of series: [3H]colchicine-tubulin binding assay. Conditions: compared with the positive control CA-4; Figure 4D. On the procedure: One micromolar radiolabeled colchicine [ring C, Methoxy-3H] (Perkin-Elmer), 1% DMSO and various concentrations of test compounds in 50 µL G-PEM buffer containing 80 mmol/L PIPES (pH 6.8), 1 mmol/L EGTA, 1 mmol/L MgCl2 and 1 mmol/L GTP, and 5% glycerol were incu-bated with […] (> 99% pure; Cytoskeleton, Inc.; 0.2 mg/mL) at 37 °C for 60 min. The binding solutions were filtered through a stack of 2 DEAE-cellulose filters and washed twice. The radioactivity in the […] was determined by liquid scintillation spectrometry (Perkin-Elmer Wallac). Nonlinear regression was used to analyse the data using GraphPad Prism.

Series [14] has as its system HUVEC. Kind of series: Wound healing migration assay. Type of series: cell-based, human. Conditions: 0.1, 1 and 10 µM.
Series [15] deals with K562 cell xenograft in zebrafish embryos. As to the kind of experiment: Zebrafish xenograft of K562 cells. Type of series: in vivo. The settings on record: 2 µM and 6 µM, compared with the control group. Here is the method:
K562 cells were labelled with Red CMTPX according to the manufacturer’s protocol. Before the microinjections, Tg(flk:EGFP) embryos were kept at 28 °C and manually dechorionated few hours. At 48 hpf, 4 nL of cells suspension containing 400 labelled cells was microinjected into the yolk of anaesthetised embryos by a pneumatic pico pump (PV820, World Precision Instruments, USA). After injection, embryos were incubated to recover for at least 1 h at 28 °C, the embryos were distributed to 6-well plates with 20 embryos placed in each well. The injected xenografts were exposed to the indicated doses of compounds and maintained at 35 °C. DMSO (0.3%) was used as a vehicle control. The survival and development of the xenografted embryos was recorded every day until the end of experiment. At one day post injection (dpi), fluorescent microscopy was used to examine K562 cells size, death and migration in caudal region of anaesthetised zebrafish.

The nature of series [16]: Preliminary cytotoxicity study on zebrafish embryos. Conditions: zebrafish, in vivo.
In series [17] the test system is zebrafish embryos. Described as above. The settings on record: at the concentration of 6 µM.

T1 sequence (P02554 whole entry): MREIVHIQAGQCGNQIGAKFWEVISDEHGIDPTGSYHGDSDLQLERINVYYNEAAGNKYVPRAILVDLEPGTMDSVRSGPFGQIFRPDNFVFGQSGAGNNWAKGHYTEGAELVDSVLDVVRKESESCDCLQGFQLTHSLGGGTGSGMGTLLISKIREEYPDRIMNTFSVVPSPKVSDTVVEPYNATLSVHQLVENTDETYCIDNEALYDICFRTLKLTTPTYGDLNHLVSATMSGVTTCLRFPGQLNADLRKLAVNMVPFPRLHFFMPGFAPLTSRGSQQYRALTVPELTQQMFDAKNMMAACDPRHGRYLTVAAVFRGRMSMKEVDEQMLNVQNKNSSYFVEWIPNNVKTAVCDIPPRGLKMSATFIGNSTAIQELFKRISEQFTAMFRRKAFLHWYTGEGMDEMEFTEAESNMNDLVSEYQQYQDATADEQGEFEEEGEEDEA
T1 sequence (P02550 whole entry): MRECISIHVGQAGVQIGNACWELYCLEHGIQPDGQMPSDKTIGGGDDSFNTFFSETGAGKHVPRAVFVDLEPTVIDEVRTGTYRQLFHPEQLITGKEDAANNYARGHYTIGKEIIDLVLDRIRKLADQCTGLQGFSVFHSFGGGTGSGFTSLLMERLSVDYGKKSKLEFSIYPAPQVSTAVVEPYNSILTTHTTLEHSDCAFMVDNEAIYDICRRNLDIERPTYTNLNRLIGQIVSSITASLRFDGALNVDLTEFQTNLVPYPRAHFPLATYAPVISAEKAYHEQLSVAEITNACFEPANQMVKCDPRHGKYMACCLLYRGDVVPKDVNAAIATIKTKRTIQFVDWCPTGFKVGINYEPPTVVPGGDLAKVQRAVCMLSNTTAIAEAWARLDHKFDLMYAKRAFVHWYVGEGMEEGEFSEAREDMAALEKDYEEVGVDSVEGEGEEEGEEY

`COc1cc(C(=O)/C=C/c2cn(S(=O)(=O)c3ccccc3)c3ccccc23)cc(OC)c1OC` [Compound 29e, (E)-3–(1-(Phenylsulfonyl)-1H-indol-3-yl)-1–(3,4,5-trimethoxyphenyl)prop-2-en-1-one]: the “Formation of intersegmental vessels (ISVs) in zebrafish embryos” value in series [1] (2.0 µM) is on record as “efficiently blocked the formation of intersegmental vessels”. For the same compound, the “Number and length of ISVs in zebrafish embryos” value in [1] (6.0 µM) is “the number and length of ISVs completely decreased”. In addition, the IC50 came to 3600 nM in [1] (Danio rerio); 3400 ± 300 nM in series [1]; 90 ± 1 nM in [2]; 370 ± 30 nM in series [3]; 840 ± 80 nM in [4]; 1220 ± 120 nM in series [5]. Besides, the concentration for half-maximal inhibition (IC50) in series [6] was 260 ± 110 nM; in series [7], 90 to 1220 nM; in series [9] (Homo sapiens, HUVEC) it was 58600 nM; in [16] it was 44600 nM. Moreover, the “percentage of apoptotic cell” value in [8] stood at 45.81%. Besides, in [9] (at the concentration of 10 µM), the “toxicity on HUVEC” value is given as “did not cause any toxicity on HUVEC”. For the same compound, the solubility at 30 min is 25 to 50 µg/mL (≈ 52.4 to 105 µM) in [10] (0.01 M HCl, pH 2, simulated gastric fluid, 0.01 M HCl, read-out: Solubility pH 2.0) and at most 150 µg/mL in series [10] (phosphate buffer, pH 6.5, aqueous buffer, phosphate buffer, read-out: Solubility pH 6.5). In addition, the microsomal CLint at 0.5 µM in series [11] turned out to be 16 µL/min/mg; in [12] it was 77 µL/min/mg. The half-life at 0.5 µM in series [11] (37 °C, read-out: Degradation half-life Human) was 35 min; in [12] (37 °C, read-out: Degradation half-life Mouse) it was 60 min. Also, the “Effect on tubulin binding of [3H]colchicine” value in [13] was “efficiently bound to the [^3H]colchicine binding domain of tubulin”. For the same compound, the “HUVEC wound closure / migration” value in series [14] is listed as “markedly decreased the closure of wound scratching”. Also, in series [15], the “K562 fluorescence intensity and tumour area in zebrafish xenograft” value is “reduced intensities and decreased tumour area”. For the same compound, the “toxicity on zebrafish embryos” value in series [17] is on record as “did not cause the toxicity”.
